From PubChem BioAssay AID1919003 (Molecular Pharmacology Branch, DTP, NCI, 2023)

Tested on: 786-0 complex spheroids with HUVEC/MSC, growth % test/control
Assay: Anticancer human tumor 786-0 cell line growth inhibition [AhR];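 also: compound exposure lasted seven days before the read-out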
Details: for IC50: curve of first compound; for viability, T/C: stronger effect = lower value
Excerpt: Multicellular complex tumor spheroid response to aryl hydrocarbon receptor antagonists in combination with a variety of drugs and investigational agents in selected tumor cell lines
The current study was undertaken to assess response to aryl hydrocarbon receptor antagonists in combination with standard-of-care drugs and investigational agents in solid tumor complex spheroid models. Complex spheroids include a stromal component modeled by human endothelial cells (HUVEC) and fibroblasts modeled by human mesenchymal stem cells (MSCs). The concentration ranges selected for each drug and investigational agent were based upon clinically achievable concentrations if the clinical Cmax of the agent was known.
Compounds. The drugs and investigational agents: BAY 2416964 (NSC825713), GNF351 (NSC835774), CH-223191 (NSC835775), CPI-455 (NSC825282), aza-TdCyd (NSC777586), decitabine (NSC127716), belinostat (NSC758774), entinostat (NSC756642), pevonedistat (NSC761192), tazemetostat (NSC777109), talazoparib (NSC765396), olaparib (NSC753686), selinexor (NSC780203), nedisertib (M3814, NSC802822), bortezomib (NSC756655), venetoclax (NSC766270), doxorubicin (NSC123127), elimusertib (BAY189344, NSC800525), ceralasertib (AZD6738, NSC777638), TAK-243 (NSC785004), alisertib (NSC759677), etoposide (NSC141540), topotecan (NSC609699), eribulin (NSC707389), gemcitabine (NSC613327), carboplatin (NSC241240), cisplatin (NSC119875), and SN-38 (NSC673596) were obtained from the National Cancer Institute (NCI) Developmental Therapeutics Program Chemical Repository (32). The FDA-approved anticancer drug set is available from the Developmental Therapeutics Program at https://dtp.cancer.gov/organization/dscb/obtaining/available plates.htm. […] The stock solutions were prepared in dimethyl sulfoxide (DMSO, Sigma-Aldrich, St. Louis, MO, cat. D2650), except for the platinum compounds which were prepared in saline (Quality Biological, Gaithersburg, MD, cat. 114-055-101), at 800-fold the tested concentration and stored at -70 degrees C prior to their use. All drugs and investigational agents were tested over a range starting from a high concentration at or near the clinical Cmax and decreasing in half-log increments. If the clinical Cmax for an agent had not been determined, the highest concentration tested was 10 microM (Table 1).
Cell Culture. All cells were maintained in an incubator at 37 degrees C and 5% CO2 with 95% humidity. The PDC lines were cultured according to standard operating procedures established by the NCI PDMR (https://pdmr.cancer.gov). Briefly, all PDCs were thawed and cultured in Matrigel-coated flasks prepared with a working solution of 1X Ham's F-12 nutrient mix, without supplementation (Invitrogen, Waltham, MA, cat. 11765054), 100 U/mL penicillin-streptomycin (Invitrogen, cat. 15140122), and 2.5% Matrigel (Corning Inc., Corning, NY, cat. 354248) for the first three passages. All PDCs were cultured in complete DMEM/F-12 media containing advanced DMEM/F-12 (Invitrogen, cat. 12634028), 4.9% defined fetal bovine serum, heat inactivated (HyClone Laboratories Inc., Logan, UT, cat. SH30070.03HI), 389 ng/mL hydrocortisone (Sigma-Aldrich, cat. H4001), 9.7 ng/mL human EGF recombinant protein (Invitrogen, cat. PHG0313), 23.4 microg/mL adenine (Sigma-Aldrich, cat. A2786), 97.3 U/mL penicillin-streptomycin (Invitrogen, cat. 15140122), 1.9 mM L-glutamine (Invitrogen, cat. 25030081), and 9.7 microM Y-27632 dihydrochloride (Tocris Bioscience, Bristol, United Kingdom, cat. 1254). The PDCs were cultured in complete DMEM/F12 media without 10 microM Y-27632 dihydrochloride for at least two passages prior to the screen. The established cell lines NCI-H1341 and […] were cultured in DMEM/F-12, HEPES (Invitrogen, cat. 11330032), 5% defined fetal bovine serum (HyClone Laboratories Inc., cat. SH30070.03), ITS premix universal culture supplement [insulin (5 microg/mL), transferrin (5 microg/mL), and selenious acid (5 ng/mL)] […]

[1] = second compound 0.1 µM, first compound 0.0316 µM
[2] = second compound 0.1 µM, first compound 0.1 µM
[3] = second compound 0.316 µM, first compound 0.0316 µM
[4] = second compound 0.316 µM, first compound 0.1 µM
[5] = second compound 1 µM, first compound 0.0316 µM
[6] = second compound 1 µM, first compound 0.1 µM
[7] = second compound 3.16 µM, first compound 0.0316 µM
[8] = second compound 3.16 µM, first compound 0.1 µM
[9] = second compound 10 µM, first compound 0.0316 µM
[10] = second compound 10 µM, first compound 0.1 µM

COc1cc(Nc2ncc3c(n2)-c2ccc(Cl)cc2C(c2c(F)cccc2OC)=NC3)ccc1C(=O)O + CC(CO)NC(=O)c1cc(-c2ccc(Cl)cc2)nn(-c2cnn(C)c2)c1=O
IC50 (second compound 0.1 µM): 2790 nM | IC50 (second compound 0.316 µM): 2600 nM | IC50 (second compound 1 µM): 2550 nM | IC50 (second compound 3.16 µM): 2540 nM | IC50 (second compound 10 µM): 2820 nM | viability, T/C [1]: 101% | viability, T/C [2]: 96.8% | viability, T/C (second compound 0.1 µM, first compound 0.316 µM): 99.9% | viability, T/C (second compound 0.1 µM, first compound 1 µM): 82% | viability, T/C (second compound 0.1 µM, first compound 3.16 µM): 46.4% | viability, T/C (second compound 0.1 µM, first compound 10 µM): 23.9% | viability, T/C [3]: 106% | viability, T/C [4]: 100% | viability, T/C (second compound 0.316 µM, first compound 0.316 µM): 107% | viability, T/C (second compound 0.316 µM, first compound 1 µM): 84.7% | viability, T/C (second compound 0.316 µM, first compound 3.16 µM): 43.2% | viability, T/C (second compound 0.316 µM, first compound 10 µM): 19.8% | viability, T/C [5]: 96.8% | viability, T/C [6]: 103% | viability, T/C (second compound 1 µM, first compound 0.316 µM): 108% | viability, T/C (second compound 1 µM, first compound 1 µM): 80.2% | viability, T/C (second compound 1 µM, first compound 3.16 µM): 44% | viability, T/C (second compound 1 µM, first compound 10 µM): 20.3% | viability, T/C [7]: 107% | viability, T/C [8]: 93.2% | viability, T/C (second compound 3.16 µM, first compound 0.316 µM): 104% | viability, T/C (second compound 3.16 µM, first compound 1 µM): 87.9% | viability, T/C (second compound 3.16 µM, first compound 3.16 µM): 41.1% | viability, T/C (second compound 3.16 µM, first compound 10 µM): 19.9% | viability, T/C [9]: 92.3% | viability, T/C [10]: 86.7% | viability, T/C (second compound 10 µM, first compound 0.316 µM): 101% | viability, T/C (second compound 10 µM, first compound 1 µM): 85% | viability, T/C (second compound 10 µM, first compound 3.16 µM): 46.2% | viability, T/C (second compound 10 µM, first compound 10 µM): 19.5%

Cn1ncnc1C1c2n[nH]c(=O)c3cc(F)cc(c23)NC1c1ccc(F)cc1 (stereo not given) + CC(CO)NC(=O)c1cc(-c2ccc(Cl)cc2)nn(-c2cnn(C)c2)c1=O
IC50 (second compound 0.1 µM): > 100 nM | IC50 (second compound 0.316 µM): > 100 nM | IC50 (second compound 1 µM): > 100 nM | IC50 (second compound 3.16 µM): > 100 nM | IC50 (second compound 10 µM): > 100 nM | viability, T/C (second compound 0.1 µM, first compound 0.000316 µM): 105% | viability, T/C (second compound 0.1 µM, first compound 0.001 µM): 97.4% | viability, T/C (second compound 0.1 µM, first compound 0.00316 µM): 95% | viability, T/C (second compound 0.1 µM, first compound 0.01 µM): 99.6% | viability, T/C [1]: 113% | viability, T/C [2]: 98.8% | viability, T/C (second compound 0.316 µM, first compound 0.000316 µM): 101% | viability, T/C (second compound 0.316 µM, first compound 0.001 µM): 105% | viability, T/C (second compound 0.316 µM, first compound 0.00316 µM): 97.8% | viability, T/C (second compound 0.316 µM, first compound 0.01 µM): 98.2% | viability, T/C [3]: 109% | viability, T/C [4]: 98.7% | viability, T/C (second compound 1 µM, first compound 0.000316 µM): 99.3% | viability, T/C (second compound 1 µM, first compound 0.001 µM): 107% | viability, T/C (second compound 1 µM, first compound 0.00316 µM): 105% | viability, T/C (second compound 1 µM, first compound 0.01 µM): 110% | viability, T/C [5]: 107% | viability, T/C [6]: 99.3% | viability, T/C (second compound 3.16 µM, first compound 0.000316 µM): 107% | viability, T/C (second compound 3.16 µM, first compound 0.001 µM): 102% | viability, T/C (second compound 3.16 µM, first compound 0.00316 µM): 99.1% | viability, T/C (second compound 3.16 µM, first compound 0.01 µM): 111% | viability, T/C [7]: 100% | viability, T/C [8]: 102% | viability, T/C (second compound 10 µM, first compound 0.000316 µM): 114% | viability, T/C (second compound 10 µM, first compound 0.001 µM): 118% | viability, T/C (second compound 10 µM, first compound 0.00316 µM): 110% | viability, T/C (second compound 10 µM, first compound 0.01 µM): 111% | viability, T/C [9]: 110% | viability, T/C [10]: 110%
